Assay results taken from patent US20250270230A1, “NOVEL SYNTHETIC STEPS FOR THE MANUFACTURING METHOD OF THE PDE4B-INHIBITOR 1-({(5R)-2-[4-(5-CHLOROPYRIMIDINE-2-YL)PIPERIDINE-1-YL]-5-OXIDO-6,7-DIHYDROTHIENO[3,2-D]PYRIMIDINE-4-YL}AMINO)CYCLOBUTYL]METHANOL” (Boehringer Ingelheim International GmbH, priority 2023, published 2025).
Where two headings read alike, the source gives them in different places. Values belong to the compound of their own block, whether it stands above or below them.

How the values were obtained:
PDE4B subunit = PDE4B subunit (Homo sapiens, UniProt Q07343); conditions: cited from earlier work
Sequence of PDE4B subunit (Q07343 whole entry): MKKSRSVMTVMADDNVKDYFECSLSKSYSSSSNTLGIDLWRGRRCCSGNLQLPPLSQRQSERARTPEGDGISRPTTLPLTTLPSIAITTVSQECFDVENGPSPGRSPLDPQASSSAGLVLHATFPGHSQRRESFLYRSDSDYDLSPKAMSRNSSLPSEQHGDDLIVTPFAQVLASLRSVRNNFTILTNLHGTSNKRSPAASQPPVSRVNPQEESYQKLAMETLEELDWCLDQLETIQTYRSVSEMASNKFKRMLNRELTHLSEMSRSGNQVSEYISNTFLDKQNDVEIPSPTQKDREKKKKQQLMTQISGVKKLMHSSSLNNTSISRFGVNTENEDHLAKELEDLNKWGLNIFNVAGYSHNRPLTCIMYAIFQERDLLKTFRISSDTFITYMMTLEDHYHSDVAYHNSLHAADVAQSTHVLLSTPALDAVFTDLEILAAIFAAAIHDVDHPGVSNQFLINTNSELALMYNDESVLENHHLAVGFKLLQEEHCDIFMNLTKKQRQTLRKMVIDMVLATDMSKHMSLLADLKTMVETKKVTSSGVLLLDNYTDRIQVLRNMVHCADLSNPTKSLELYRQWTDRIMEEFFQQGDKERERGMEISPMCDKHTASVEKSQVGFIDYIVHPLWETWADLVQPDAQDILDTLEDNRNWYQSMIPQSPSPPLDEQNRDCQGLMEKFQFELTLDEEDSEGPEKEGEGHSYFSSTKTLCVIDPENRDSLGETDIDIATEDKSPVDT

[1] = test system: patients with idiopathic pulmonary fibrosis (IPF); conditions: Phase II, cited from earlier work
[2] = Form conversion from crystalline Form A to Form B followed by Raman spectroscopy; type: physicochemical; conditions: 40° C., n-propanol/water, seeding with Form B
Procedure: Form A was charged to the reactor as the starting material. 7.0 VP of n-propanol and […] were used along with Raman probe to confirm the rate of conversion by holding the conversion at different temperature. The rate of form conversion from crystalline Form A to crystalline Form B of the PDE4B-inhibitor of formula XX was studied at 20, 40 and 70° C. with 10% seeding with crystalline Form B seeding crystals.
At 20 or 70° C., the conversion rate was similar, but definitely slower than at 40° C.
The temperature of 40° C. allows a full conversion of crystalline Form A into crystalline Form B in less than 4 hours, preferably even in 2 hours (see also FIGS. 1a and 1b). […] However, the crystallization procedure to yield the Compound of formula XX as crystalline Form B (on production scale) as described in Chapter 3.10 reduces the crystallization time down to not more than 9 hours from the timepoint of seeding, which means a significant improvement in the cycling time.

[3] = Competitive slurries containing Form A, Form B and Form C (thermodynamic stability); type: physicochemical
Procedure: Few other crystalline forms were observed during the initial and extended solid form screening by using various techniques. […] Its thermodynamic stability has been confirmed by competitive slurries containing Form A, Form B and Form C. Form B was the predominant form in all solvents and temperature conditions, except for the solvent water (with a water activity of 1) at temperatures between 5 and 25° C. which yielded Form C.

[4] = Storage stability of intermediates at room temperature; type: physicochemical
Description: The alternative synthesis method to manufacture Intermediate VIII has several advantages over the method of manufacturing Intermediate VIII (or Intermediate G as it is called in U.S. Pat. No. […]): • The new Suzuki-reaction process offers much better control of impurities by avoiding the formation of N-methylation at the piperidine ring. The methylation of the piperidine-ring occurs in the original process according to U.S. Pat. No. 8,609,670 during the use of methanol and 4M hydrochloric acid in 1,4-dioxane and takes place via the in situ formed cancerogenic compound methyl chloride. […] 0.05 m % (0.02 mol %) Pd(amphos)2Cl2 is sufficient for the Suzuki cross-coupling reaction to complete the conversion in less than 3 hours. In literature, significant higher amounts of Pd-catalyst have been described so far [a) K.-T.-Wong et al, Org. […] Second, the reproducibility of yield and quality is very high and consistent as observed on production scale over several batches. […]

[5] = Stress test-experiments of the hydrolysis reactions of Intermediate XVII; type: physicochemical
Procedure: (§1) It is shown, that hydrolysis toward IMP-A occurs at 60° C. and 90° C. (examples 1 and 2). The hydrolysis reaction itself is promoted by titanium residues, as example 2 with 671 mg/kg titanium leads to higher impurity levels of IMP-A compared to example 1, which has a lower titanium content (<251 mg/kg).
as §1, with “mg/kg titanium content leads to” for “mg/kg titanium leads to”

[6] = Long-term stability of water-free material regarding hydrolysis side-reactions; type: physicochemical; conditions: water-free form (recrystallization variant A, 1,4-dioxane)
Description: For example with the additional recrystallization step according to variant A (recrystallization from 1,4-dioxane) Intermediate XVIII is obtained as a water-free form (examples 1 and 2). The water-free material is long-term stable (>12 months) regarding hydrolysis side-reactions, which can occur at two positions of Intermediate XVII by forming IMP-A and IMP-B (see Scheme 5).
In comparison to the process as described in U.S. Pat. No. 8,609,670B, the additional recrystallization step after the enantioselective oxidation step according to variant A yielding Intermediate XVIII also improves the quality of the sulfoxide XVII critically. Hereby, Intermediate XVIII is obtained as a water-free form. The water-free material is long-term stable (>12 months) regarding hydrolysis side-reactions, which can occur at two positions of Intermediate XVII by forming the impurities IMP-A and IMP-B (see Scheme 14).

[7] = batch Example 1, Ti content <251 mg/kg
[8] = batch Example 2, Ti content 671 mg/kg

SMILES: [O-][S@+]1CCc2nc(N3CCC(c4ncc(Cl)cn4)CC3)nc(NC3(CO)CCC3)c21 [Compound XX, 1-({(5R)-2-[4-(5-CHLOROPYRIMIDINE-2-YL)PIPERIDINE-1-YL]-5-OXIDO-6,7-DIHYDROTHIENO[3,2-D]PYRIMIDINE-4-YL}AMINO)CYCLOBUTYL]METHANOL]
PDE4 subunit preference (PDE4B subunit): preferentially inhibits the PDE4B subunit
lung function decline ([1]; IPF patients already taking approved antifibrotics (Nintedanib or Pirfenidon) as background): reduction in lung function decline could be observed
lung function decline ([1]; IPF patients not on approved antifibrotics as background treatment): reduction in lung function decline could be observed
rate of lung function decline ([1]; IPF patients, within 12 weeks of treatment): reduction in the rate of lung function decline

SMILES: [O-][S@+]1CCc2nc(N3CCC(c4ncc(Cl)cn4)CC3)nc(NC3(CO)CCC3)c21 [Form A]
time for full conversion of crystalline Form A into crystalline Form B [2]: less than 4 hours

SMILES: [O-][S@+]1CCc2nc(N3CCC(c4ncc(Cl)cn4)CC3)nc(NC3(CO)CCC3)c21 [Form B]
thermodynamic stability of crystalline form [3]: thermodynamically most stable form

SMILES: CC(C)(C)OC(=O)N1CC=C(c2ncc(Cl)cn2)CC1 [Intermediate VI]
storage stability [4]: stable for storage at room temperature

The next lines start with the values.

IMP-A content in XVII after 1 week at 60° C. [5, 7]: 0.13%
IMP-A content in XVII after 1 week at 90° C. [5, 7]: 0.16%
IMP-A content in XVII at t = 0 [5, 7]: 0.10%
IMP-B content in XVII after 1 week at 60° C. [5, 7]: 0.05%
IMP-B content in XVII after 1 week at 90° C. [5, 7]: 0.34%
IMP-B content in XVII at t = 0 [5, 7]: <0.05%
IMP-A content in XVII after 1 week at 60° C. [5, 8]: 0.19%
IMP-A content in XVII after 1 week at 90° C. [5, 8]: 0.32%
IMP-A content in XVII at t = 0 [5, 8]: <0.05%
IMP-B content in XVII after 1 week at 60° C. [5, 8]: <0.05%
IMP-B content in XVII after 1 week at 90° C. [5, 8]: 0.54%
IMP-B content in XVII at t = 0 [5, 8]: <0.05%
SMILES: [O-][S@+]1CCc2nc(Cl)nc(NC3(CO)CCC3)c21 [Intermediate XVII, 1-[[(5R)-2-chloro-6,7-dihydro-5-oxidothieno[3,2-d]pyrimidin-4-yl]amino]-cyclobutanemethanol]

long-term stability regarding hydrolysis side-reactions [6]: > 12 months
SMILES: [O-][S@+]1CCc2nc(Cl)nc(NC3(CO)CCC3)c21 [Intermediate XVIII]
